Reference: the supplement of paper PMC4862054

Experiments:
Experiment in all cases: normalised response (% of control), CellTiter-Glo; higher = more viable cells (100 = DMSO, 0 = benzethonium chloride kill control)
Details in all cases: incubation time: 72 h
CAL-51 = system: CAL-51
Outline: (§1)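 The table gives the normalised signal for a single concentration in each entry. Breast cancer cell lines were seeded (20 µl suspension) into 384-well plates holding compound at 5 concentrations in 10-fold steps over a compound-specific 10,000-fold range and incubated 72 h, then read for CellTox Green fluorescence (485/520 nm) and CellTiter-Glo luminescence. Normalisation on each plate used 0.1 % DMSO (100) and a positive kill control (0).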

CAL-120 = system: CAL-120
Outline: as §1

CAL-148 = system: CAL-148
Outline: as §1

MDA-MB-436 = system: MDA-MB-436
Outline: as §1

Hs578T = system: Hs578T
Outline: as §1

MDA-MB-468 = system: MDA-MB-468
Outline: as §1

HCC1937 = system: HCC1937
Outline: as §1

CAL-85-1 = system: CAL-85-1
Outline: as §1

DU-4475 = system: DU-4475
Outline: as §1

HCC1599 = system: HCC1599
Outline: as §1

BT-474 = system: BT-474
Outline: as §1

MDA-MB-453 = system: MDA-MB-453
Outline: as §1

MFM-223 = system: MFM-223
Outline: as §1

HDQ-P1 = system: HDQ-P1
Outline: as §1

SK-BR-3 = system: SK-BR-3
Outline: as §1

MCF-10A = system: MCF-10A
Outline: as §1

BT-549 = system: BT-549
Outline: as §1

HCC1143 = system: HCC1143
Outline: as §1

MDA-MB-231 = system: MDA-MB-231
Outline: as §1

`Cn1cc(C2=Nc3cc(NC(=O)C(N)C4CCCCC4)cc4c3C2=CNNC4=O)cn1` (stereo unspecified) (1 nM) showed a normalised response (CAL-51) of 103%, a normalised response (CAL-120) of 97.1% and a normalised response (CAL-148) of 91.3%. The normalised response (MDA-MB-436) was 86.7%, the normalised response (Hs578T) was 94% and the normalised response (MDA-MB-468) was 91.2%. For the same compound, the normalised response (HCC1937) was 94.1%, the normalised response (CAL-85-1) was 95.9% and the normalised response (DU-4475) was 98.3%. The normalised response (HCC1599) was 97.4%, the normalised response (BT-474) was 93.8% and the normalised response (MDA-MB-453) was 84.3%. It also gave a normalised response (MFM-223) of 86.7%, a normalised response (HDQ-P1) of 91.4% and a normalised response (SK-BR-3) of 82.5%. For the same compound, the normalised response (MCF-10A) was 80%, the normalised response (BT-549) was 98.2% and the normalised response (HCC1143) was 86.8%. For the same compound, the normalised response (MDA-MB-231) was 95%.
`Cn1cc(C2=Nc3cc(NC(=O)C(N)C4CCCCC4)cc4c3C2=CNNC4=O)cn1` (stereo unspecified) (10 nM) showed a normalised response (CAL-51) of 134%, a normalised response (CAL-120) of 90.9% and a normalised response (CAL-148) of 87.3%. The normalised response (MDA-MB-436) was 89.4%, the normalised response (Hs578T) was 94.3% and the normalised response (MDA-MB-468) was 90.6%. The normalised response (HCC1937) was 96.2%, the normalised response (CAL-85-1) was 93.3% and the normalised response (DU-4475) was 95.3%. The normalised response (HCC1599) was 93.4%, the normalised response (BT-474) was 94% and the normalised response (MDA-MB-453) was 91.7%. It also gave a normalised response (MFM-223) of 90.4%, a normalised response (HDQ-P1) of 91.7% and a normalised response (SK-BR-3) of 77.2%. The normalised response (MCF-10A) was 84.6%, the normalised response (BT-549) was 95.2% and the normalised response (HCC1143) was 90.4%. The normalised response (MDA-MB-231) was 91.2%.
In the case of `COc1cc2c(cc1O)CC[C@@H]1[C@@H]2CC[C@]2(C)[C@@H](O)CC[C@@H]12` [2-methoxyestradiol] (10 nM), the normalised response (CAL-51) is reported as 97.5%, the normalised response (CAL-120) is reported as 101% and the normalised response (CAL-148) is reported as 91.3%. It also gave a normalised response (MDA-MB-436) of 106%, a normalised response (Hs578T) of 96.8% and a normalised response (MDA-MB-468) of 98.2%. It also gave a normalised response (HCC1937) of 98.1%, a normalised response (CAL-85-1) of 103% and a normalised response (DU-4475) of 101%. For the same compound, the normalised response (HCC1599) was 92.7%, the normalised response (BT-474) was 97.8% and the normalised response (MDA-MB-453) was 96.4%. For the same compound, the normalised response (MFM-223) was 96.5%, the normalised response (HDQ-P1) was 101% and the normalised response (MCF-10A) was 94.6%. It also gave a normalised response (BT-549) of 94%, a normalised response (HCC1143) of 103% and a normalised response (MDA-MB-231) of 97.7%.
For `Cc1sc2c(c1C)C(c1ccc(Cl)cc1)=N[C@@H](CC(=O)OC(C)(C)C)c1nnc(C)n1-2` [(+)JQ1] (10 nM), the normalised response (CAL-51) was 107%, the normalised response (CAL-120) was 94.8% and the normalised response (CAL-148) was 116%. For the same compound, the normalised response (MDA-MB-436) was 113%, the normalised response (Hs578T) was 98.1% and the normalised response (MDA-MB-468) was 98.3%. The normalised response (HCC1937) was 94.5%, the normalised response (CAL-85-1) was 101% and the normalised response (DU-4475) was 104%. For the same compound, the normalised response (HCC1599) was 104%, the normalised response (BT-474) was 108% and the normalised response (MDA-MB-453) was 111%. It also gave a normalised response (MFM-223) of 108%, a normalised response (HDQ-P1) of 101% and a normalised response (MCF-10A) of 107%. It also gave a normalised response (BT-549) of 96.2%, a normalised response (HCC1143) of 105% and a normalised response (MDA-MB-231) of 110%.
For `CC1(C)CCC(CN2CCN(c3ccc(C(=O)NS(=O)(=O)c4ccc(NCC5CCOCC5)c([N+](=O)[O-])c4)c(Oc4cnc5[nH]ccc5c4)c3)CC2)=C(c2ccc(Cl)cc2)C1` [ABT-199] (1 nM), the normalised response (CAL-51) was 122%, the normalised response (CAL-120) was 98.9% and the normalised response (CAL-148) was 100%. It also gave a normalised response (MDA-MB-436) of 98.5%, a normalised response (Hs578T) of 104% and a normalised response (MDA-MB-468) of 94.1%. For the same compound, the normalised response (HCC1937) was 106%, the normalised response (CAL-85-1) was 99.5% and the normalised response (DU-4475) was 98.2%. It also gave a normalised response (HCC1599) of 89.5%, a normalised response (BT-474) of 94.8% and a normalised response (MDA-MB-453) of 101%. It also gave a normalised response (MFM-223) of 96.8%, a normalised response (HDQ-P1) of 101% and a normalised response (SK-BR-3) of 95.4%. For the same compound, the normalised response (MCF-10A) was 98.3%, the normalised response (BT-549) was 98.9% and the normalised response (HCC1143) was 98.6%. The normalised response (MDA-MB-231) was 97.4%.
Work on `CC1(C)CCC(CN2CCN(c3ccc(C(=O)NS(=O)(=O)c4ccc(NCC5CCOCC5)c([N+](=O)[O-])c4)c(Oc4cnc5[nH]ccc5c4)c3)CC2)=C(c2ccc(Cl)cc2)C1` [ABT-199] (10 nM) yielded a normalised response (CAL-51) of 68.3%, a normalised response (CAL-120) of 91.8% and a normalised response (CAL-148) of 103%. It also gave a normalised response (MDA-MB-436) of 102%, a normalised response (Hs578T) of 103% and a normalised response (MDA-MB-468) of 118%. It also gave a normalised response (HCC1937) of 99.7%, a normalised response (CAL-85-1) of 106% and a normalised response (DU-4475) of 96.2%. It also gave a normalised response (HCC1599) of 104%, a normalised response (BT-474) of 97.3% and a normalised response (MDA-MB-453) of 97.5%. The normalised response (MFM-223) was 100%, the normalised response (HDQ-P1) was 97.1% and the normalised response (MCF-10A) was 101%. For the same compound, the normalised response (BT-549) was 95.7%, the normalised response (HCC1143) was 99.2% and the normalised response (MDA-MB-231) was 97.2%.
`Oc1ncnc2[nH]ncc12` [Allopurinol] (10 nM) gave a normalised response (CAL-51) of 98.1%, a normalised response (CAL-120) of 99% and a normalised response (CAL-148) of 107%. For the same compound, the normalised response (MDA-MB-436) was 96.5%, the normalised response (Hs578T) was 97.5% and the normalised response (MDA-MB-468) was 99%. It also gave a normalised response (HCC1937) of 99.2%, a normalised response (CAL-85-1) of 98.6% and a normalised response (DU-4475) of 106%. The normalised response (HCC1599) was 104%, the normalised response (BT-474) was 102% and the normalised response (MDA-MB-453) was 109%. For the same compound, the normalised response (MFM-223) was 108%, the normalised response (HDQ-P1) was 99.5% and the normalised response (SK-BR-3) was 106%. The normalised response (MCF-10A) was 107%, the normalised response (BT-549) was 101% and the normalised response (HCC1143) was 103%. For the same compound, the normalised response (MDA-MB-231) was 99.6%.
`O=C1CN2Cc3c(ccc(Cl)c3Cl)N=C2N1` [Anagrelide] (10 nM) was tested, and the normalised response (CAL-51) was 115%, the normalised response (CAL-120) was 96.5% and the normalised response (CAL-148) was 93.9%. The normalised response (MDA-MB-436) was 95.2%, the normalised response (Hs578T) was 97.5% and the normalised response (MDA-MB-468) was 100%. The normalised response (HCC1937) was 94.8%, the normalised response (CAL-85-1) was 93.8% and the normalised response (DU-4475) was 101%. The normalised response (HCC1599) was 100%, the normalised response (BT-474) was 95.5% and the normalised response (MDA-MB-453) was 102%. For the same compound, the normalised response (MFM-223) was 99.2%, the normalised response (HDQ-P1) was 98.7% and the normalised response (SK-BR-3) was 94.2%. The normalised response (MCF-10A) was 103%, the normalised response (BT-549) was 101% and the normalised response (HCC1143) was 103%. The normalised response (MDA-MB-231) was 97%.
With `Nc1ncn([C@@H]2O[C@H](CO)[C@@H](O)[C@H]2O)c(=O)n1` [Azacitidine] (10 nM) the normalised response (CAL-51) was 113%, the normalised response (CAL-120) was 99.3% and the normalised response (CAL-148) was 92%. It also gave a normalised response (MDA-MB-436) of 105%, a normalised response (Hs578T) of 97.5% and a normalised response (MDA-MB-468) of 103%. The normalised response (HCC1937) was 101%, the normalised response (CAL-85-1) was 101% and the normalised response (DU-4475) was 102%. The normalised response (HCC1599) was 105%, the normalised response (BT-474) was 99.9% and the normalised response (MDA-MB-453) was 105%. The normalised response (MFM-223) was 96.2%, the normalised response (HDQ-P1) was 99.5% and the normalised response (SK-BR-3) was 110%. The normalised response (MCF-10A) was 103%, the normalised response (BT-549) was 93.4% and the normalised response (HCC1143) was 99.4%. The normalised response (MDA-MB-231) was 94.3%.
For `O=NN(CCCl)C(=O)NCCCl` [Carmustine] (10 nM), the normalised response (CAL-51) was 128%, the normalised response (CAL-120) was 98.9% and the normalised response (CAL-148) was 93.3%. For the same compound, the normalised response (MDA-MB-436) was 98.4%, the normalised response (Hs578T) was 105% and the normalised response (MDA-MB-468) was 102%. The normalised response (HCC1937) was 101%, the normalised response (CAL-85-1) was 95.6% and the normalised response (DU-4475) was 101%. For the same compound, the normalised response (HCC1599) was 97.9%, the normalised response (BT-474) was 93.8% and the normalised response (MDA-MB-453) was 114%. It also gave a normalised response (MFM-223) of 102%, a normalised response (HDQ-P1) of 94.8% and a normalised response (MCF-10A) of 96.6%. It also gave a normalised response (BT-549) of 100%, a normalised response (HCC1143) of 105% and a normalised response (MDA-MB-231) of 91.9%.
